Assay results reported in US9775819B2, “Oral solid dosage form containing nanoparticles and process of formulating the same using fish gelatin” (R.P. SCHERER TECHNOLOGIES, LLC, priority 2009, dated 2017).

Experiment: Particle size (d50) by laser light diffraction, Malvern Mastersizer 2000
Assay type: physicochemical
Conditions: unmilled active ingredient
Excerpt: During step (a) of the method of the invention, the suspension may be recycled if necessary and the process of particle size reduction continued until the desired nanoparticle size of the active ingredient is obtained. The size of the nanoparticles within the nanosuspension is typically measured using well known techniques, such as laser light diffraction methodology using, e.g., a Malvern Mastersizer 2000 particle size analyzer (Malvern Instruments, Westborough Mass.). Particle size measurements are typically described using parameters such as d50, a parameter that represents the size above and below which one finds 50% of the volume of all particles, also known as the volume weighted median. Accordingly, d50 represents a median particle size value. According to the invention, the solution is milled until a d50 ranging preferably from about 1 nm to about 900 nm, more preferably from about 10 nm to about 800 nm, and most preferably from about 50 nm to about 700 nm is achieved.
An oral solid dosage form comprising the active ingredient naproxen and excipients fish gelatin as nanostabilizer (SMW fish gelatin grade from Norland Products Inc.—Example 1A; and DFG grade from Norland Products Inc.—Example 1B) and mannitol as bulking agent was prepared. An aqueous solution of 5% fish gelatin and 3% mannitol was prepared; then naproxen was added to this solution to form a suspension slurry. The suspension slurry was charged into a 600 cc chamber-size Dyno® Mill containing zirconium milling media. Naproxen concentration in the milling slurry was 15% by weight. Milling was performed on recirculating suspension for 1.5 hours using the default milling conditions for this equipment. The resultant bulk nanosuspension was discharged from the mill, and 250 mg unit doses were accurately dispensed into 0.25 mL capacity blister pockets using an IVEK pump controlled using a Digispense unit. Blister pockets were frozen in an Air Products CM2000 freezer using liquid nitrogen as coolant and a 3 minute freezing time, then held in a freezer until transfer to pre-cooled freeze-drier shelves. […]

| SMILES | d50 [μm] |
| --- | --- |
| COc1ccc2c(c1)c(CC(=O)O)c(C)n2C(=O)c1ccc(Cl)cc1 [indomethacin] | 37 |
| COc1ccc2cc([C@H](C)C(=O)O)ccc2c1 [naproxen] | 22 |
| CCOc1ccc(NC(C)=O)cc1 [phenacetin] | 83 |
